Data: US9999609B2, “Methods for treating or preventing fatigue” (SK Biopharmaceuticals Co., Ltd., priority 2009, dated 2018)

Assays:
Assay type in all cases: in vivo
[1] = system: adult human subjects with moderate or severe major depression without psychotic features; test: Randomized double-blind placebo- and active-controlled 6-week study in major depression; conditions: for ABCD questionnaire items (of 51) with statistically significant superiority to placebo: post hoc analyses
Excerpt: This was a randomized, double-blind, parallel-group, active, and placebo-controlled, multicenter study conducted in the U.S. (23 centers) and Canada (4 centers). There were 2 phases: a pretreatment phase (screening/washout and a baseline visit) and a 6-week, double-blind treatment phase. Paroxetine, a positive control, was included to evaluate assay sensitivity. After washout (if needed) of prohibited substances, subjects were randomly assigned (1:1:1:1) to receive the test compound titrated to a target dose of 200 mg/day or 400 mg/day, matching placebo, or a fixed dose (20 mg/day) of paroxetine. Study drug was given twice daily for 6 weeks. Efficacy and safety were assessed weekly during the double-blind phase. Subjects completing the study underwent an Exit Interview (“Your Health and Well-Being”) and completed an Assessment of Benefits of Clinical-trial Drug-treatment (ABCD) questionnaire (U.S. sites only).

[2] = system: male adult Sprague Dawley rats; test: Sleep-wake organization (EEG/EOG/EMG) in rats after acute i.p. administration; conditions: for Duration Active wake / Duration Deep sleep / Duration Intemediate stage / Duration Light sleep / Duration Passive wake / Duration REM sleep / Latency ISWS / Latency REM sleep / Latency dSWS / Shifts: Shift from ISWS to AW / Shifts: Shift from ISWS to PW / Shifts: Shift from REMS to AW / Shifts: Shift from REMS to PW / Shifts: Shift from dSWS to AW / Shifts: Shift from dSWS to PW: rats, mean ± s.e.m of 8 rats; for Duration Active wake / Duration Deep sleep / Duration Intemediate stage / Duration Light sleep / Duration Passive wake / Duration REM sleep: 16 h recording
[3] = system: C57BL/6J, AKR/J and DBA/2J mice; test: Sleep onset and vigilance states in three inbred mouse strains after IP injection
Experimental: At least 7 adult male mice of inbred strains C57BL/6J, AKR/J, and DBA/2J were recorded in 2 sessions of 72 continuous hours. The first 24 h in each session are considered as baseline followed the next day by the saline injection and the next day by 150 mg/kg of the test compound in the first session and 5 mg/kg d-amphetamine in the second session. The two sessions were separated by 7 days (wash-out period) and all injections were intraperitoneal (IP) and performed at light onset (9 am) in a volume of 5 ml/kg.

[4] = system: hypocretin cell ablated narcoleptic mice (prepororexin/ataxin-3 transgenic) and their littermate wild-type mice; test: Sleep parameters (EEG/EMG polygraph) in narcoleptic and wild-type mice after oral dosing; conditions: for duration of continuous wakefulness: resting period (ZT 2), most wild-type and narcoleptic mice
Excerpt: The polygraph signal (EEG and EMG) was captured with SleepSign (Kissei Comtech), and the sleep stage was visually scored with 10 sec epoch for wakefulness, non-REM sleep and REM sleep. Scoring criteria are: Wakefulness is characterized by desynchronized low-amplitude, mixed frequency (>4 Hz) EEG and high EMG activity. Rhythmic alpha (8-9 Hz) wave (with high EMG activities) may also appear. Non-REM is characterized by synchronized, high-amplitude, low-frequency (0.25-4 Hz) with reduced EMG activity (compared to wakefulness). EEG activity in REM sleep is similar to that in wakefulness, with desynchronized, mixed frequency low amplitude waves. Rhythmic alpha (8-9 Hz) wave with reduced EMG activities may also appear. […] is reduced even further and in many cases, completely absent. Same muscle twitching may be apparent in the EMG trace during REM sleep.
Three drug doses of the test compound (50, 100 and 150 mg/kg PO) plus vehicle, were orally administered at ZT 2 (2 hours after light on) or ZT14 (2 hours after light off), and the effects on sleep were monitored for 6 hours after the drug administration (the sleep data was collected for 30 hours after the drug injection, and are available for further analysis). The doses for modafinil were 50 and 200 mg/kg PO (plus vehicle), and modafinil was also administered at ZT 2 and […]
If the polygraph signals of some mice were not sufficient to score the sleep stage with accuracy (especially bad EMG), data from these animals were excluded, and the minimum of 5 animals (except for the highest dose of the test compound in wild-type mice in dark period, n=4) were included for the data analysis and number of animals were indicated in the figures.
Effects of test compound and modafinil on the amount of wake, non-REM sleep, REM sleep (cumulative seconds), number of episodes for each sleep stage during 6 hours, and mean wake/sleep-bout lengths (seconds) were analyzed in each animal and the mean of each parameter was calculated in each genotype. The effects of compounds on wake and sleep amounts are useful to evaluate the wake promoting potency, and the number of episodes for each sloop stage and the mean wake/sleep bout length are parameters for evaluating the sleep fragmentation. Amphetamine and modafinil, two main wake-promoting compounds currently used for the treatment of EDS associated with various etiologies (narcolepsy, idiopathic hypersomnia and secondary EDS), are known to increase wake time and prolong wake bout length in normal and EDS conditions.
A comparison of the effects between hypocretin deficient and wild-type mice is very useful in determining the wake-promotion of the test compound is dependent on the availability of hypocretins, and if there is a possible change in the sensitivity of the receptive mechanisms of test compound in narcoleptic mice due to the hypocretin ligand deficiency.

[5] = 3 mg/kg i.p., 16 hours recording
[6] = 30 mg/kg i.p., 16-h post-injection

NC(=O)OC[C@H](N)Cc1ccccc1 [test compound, (R)-(beta-amino-benzenepropyl) carbamate]
ABCD questionnaire items (of 51) with statistically significant superiority to placebo ([1]; 200 mg): 14 items
ABCD questionnaire items (of 51) with statistically significant superiority to placebo ([1]; 400 mg): 8 items
secondary efficacy variables of mood and well-being ([1]; one or both doses (200 and 400 mg/day), 6 weeks): statistically significantly greater efficacy than placebo
Insomnia, treatment-emergent adverse event incidence ([1]; target dose 200 mg/day, 6 weeks): 24%
Insomnia, treatment-emergent adverse event incidence ([1]; target dose 400 mg/day, 6 weeks): 35%
increase in total light sleep vs vehicle [2, 5]: +26%
increased drive to wakefulness from deep sleep vs vehicle [2, 5]: +15%
increased drive to wakefulness from light sleep vs vehicle [2, 5]: +46%
increase in shifts from REM sleep towards active wakefulness vs vehicle ([2]; 10 mg/kg i.p.): +16%
increase in total duration of light sleep vs vehicle ([2]; 10 mg/kg i.p.): +24%
change in number of epochs of REM sleep ([2]; 30 mg/kg i.p.): −24%
change in number of epochs of active wakefulness ([2]; 30 mg/kg i.p.): +19%
change in number of epochs of light sleep ([2]; 30 mg/kg i.p.): −23%
change in number of epochs of passive wakefulness ([2]; 30 mg/kg i.p.): −30%
mean durations of sleep wake states ([2]; 30 mg/kg i.p.): not modified
onset of activity after administration ([2]; 30 mg/kg i.p.): ~30 min
change of total time spent in REM sleep vs vehicle [2, 6]: −25%
change of total time spent in active wakefulness vs vehicle [2, 6]: +19%
change of total time spent in light sleep vs vehicle [2, 6]: −20%
change of total time spent in passive wakefulness vs vehicle [2, 6]: −29%
overall profile of effects ([2]; 30 mg/kg i.p., beginning of the administration): psychostimulant-like properties
duration of rebound increase in deep sleep ([2]; 30 mg/kg i.p., starting 3 hours after administration): about 7 hours
duration of central activity after injection ([2]; i.p.): at least 4 hours
time of peak in effect post administration ([2]; i.p.): around 2 hours
Duration Active wake ([2]; 3 mg/kg i.p.): 290.0 ± 11.2 min
Duration Deep sleep ([2]; 3 mg/kg i.p.): 125.0 ± 24.6 min
Duration Intemediate stage ([2]; 3 mg/kg i.p.): 2.9 ± 0.7 min
Duration Light sleep ([2]; 3 mg/kg i.p.): 374.7 ± 16.6 min
Duration Passive wake ([2]; 3 mg/kg i.p.): 79.5 ± 10.7 min
Duration REM sleep ([2]; 3 mg/kg i.p.): 84.0 ± 5.4 min
Latency ISWS ([2]; 3 mg/kg i.p.): 15.6 ± 4.1 min
Latency REM sleep ([2]; 3 mg/kg i.p.): 66.0 ± 11.8 min
Latency dSWS ([2]; 3 mg/kg i.p.): 42.0 ± 8.5 min
Shifts: Shift from ISWS to AW ([2]; 3 mg/kg i.p.): 217.8 ± 55.5 number
Shifts: Shift from ISWS to PW ([2]; 3 mg/kg i.p.): 78.1 ± 35.8 number
Shifts: Shift from REMS to AW ([2]; 3 mg/kg i.p.): 78.0 ± 21.6 number
Shifts: Shift from REMS to PW ([2]; 3 mg/kg i.p.): 3.7 ± 3.0 number
Shifts: Shift from dSWS to AW ([2]; 3 mg/kg i.p.): 9.7 ± 6.6 number
Shifts: Shift from dSWS to PW ([2]; 3 mg/kg i.p.): 6.6 ± 5.9 number
Duration Active wake ([2]; 10 mg/kg i.p.): 305.5 ± 15.1 min
Duration Deep sleep ([2]; 10 mg/kg i.p.): 104.0 ± 19.3 min
Duration Intemediate stage ([2]; 10 mg/kg i.p.): 5.2 ± 0.7 min
Duration Light sleep ([2]; 10 mg/kg i.p.): 366.6 ± 21.2 min
Duration Passive wake ([2]; 10 mg/kg i.p.): 73.1 ± 13.2 min
Duration REM sleep ([2]; 10 mg/kg i.p.): 102.3 ± 4.6 min
Latency ISWS ([2]; 10 mg/kg i.p.): 30.4 ± 7.9 min
Latency REM sleep ([2]; 10 mg/kg i.p.): 87.5 ± 14.5 min
Latency dSWS ([2]; 10 mg/kg i.p.): 127.2 ± 67.1 min
Shifts: Shift from ISWS to AW ([2]; 10 mg/kg i.p.): 204.5 ± 56.4 number
Shifts: Shift from ISWS to PW ([2]; 10 mg/kg i.p.): 84.4 ± 40.5 number
Shifts: Shift from REMS to AW ([2]; 10 mg/kg i.p.): 94.1 ± 24.0 number
Shifts: Shift from REMS to PW ([2]; 10 mg/kg i.p.): 8.9 ± 6.7 number
Shifts: Shift from dSWS to AW ([2]; 10 mg/kg i.p.): 4.2 ± 3.1 number
Shifts: Shift from dSWS to PW ([2]; 10 mg/kg i.p.): 12.5 ± 8.5 number
Duration Active wake ([2]; 30 mg/kg i.p.): 371.6 ± 7.7 min
Duration Deep sleep ([2]; 30 mg/kg i.p.): 214.9 ± 15.6 min
Duration Intemediate stage ([2]; 30 mg/kg i.p.): 4.0 ± 1.0 min
Duration Light sleep ([2]; 30 mg/kg i.p.): 235.8 ± 14.3 min
Duration Passive wake ([2]; 30 mg/kg i.p.): 57.3 ± 4.7 min
Duration REM sleep ([2]; 30 mg/kg i.p.): 72.9 ± 7.3 min
Latency ISWS ([2]; 30 mg/kg i.p.): 73.6 ± 25.7 min
Latency REM sleep ([2]; 30 mg/kg i.p.): 251.8 ± 32.0 min
Latency dSWS ([2]; 30 mg/kg i.p.): 174.6 ± 12.3 min
Shifts: Shift from ISWS to AW ([2]; 30 mg/kg i.p.): 221.9 ± 58.3 number
Shifts: Shift from ISWS to PW ([2]; 30 mg/kg i.p.): 74.2 ± 29.0 number
Shifts: Shift from REMS to AW ([2]; 30 mg/kg i.p.): 65.1 ± 21.8 number
Shifts: Shift from REMS to PW ([2]; 30 mg/kg i.p.): 4.1 ± 3.2 number
Shifts: Shift from dSWS to AW ([2]; 30 mg/kg i.p.): 8.7 ± 5.3 number
Shifts: Shift from dSWS to PW ([2]; 30 mg/kg i.p.): 17.6 ± 12.0 number
genotype effect on wake time referenced to sleep latency after saline ([3]; 150 mg/kg IP): no genotype effect
duration of induced continuous wakefulness (sleep latency) ([3]; 150 mg/kg IP at light onset, three inbred strains): up to 4.5 hours
wakefulness duration compared with d-amphetamine 5 mg/kg ([3]; 150 mg/kg IP, hourly wakefulness over 72 h recordings): significantly longer wakefulness duration than amphetamine
duration of continuous wakefulness ([4]; 50 mg/kg PO): up to 3 hours
duration of continuous wakefulness ([4]; 100 mg/kg PO): ≤ 4 h
duration of continuous wakefulness ([4]; 150 mg/kg PO): ≤ 5 h
bouts of wakefulness ([4]; 50-150 mg/kg PO, wild-type and narcoleptic mice): significantly increased bouts of wakefulness
effect on wakefulness ([4]; active (dark) period, ZT14, PO): dose-dependently increased wakefulness
wake amounts in narcoleptic mice relative to wild-type mice ([4]; active period, 100 and 150 mg/kg PO): brought up to the levels of wild-type mice
amounts of non-REM and REM sleep in narcoleptic mice relative to wild-type mice ([4]; active period, PO): brought down to the levels of wild-type mice
Non-REM and REM sleep during the period of continuous wakefulness ([4]; resting period, 50, 100, 150 mg/kg PO): completely suppressed
EEG patterns after administration ([4]; resting period, 50-150 mg/kg PO): no abnormal EEG patterns
effect on REM sleep ([4]; resting period, PO): potently reduced REM sleep
wake-promoting effects ([4]; resting period, wild-type and hypocretin-deficient narcoleptic mice, PO): Very potent wake-promoting effects
